According to patent US20260007133A1, “HERBICIDAL COMPOSITION COMPRISING AZINE COMPOUNDS” (BASF SE, priority 2022, published 2026):
Read-outs that look alike come from different tables or passages of the source.

Experiments:
Type in all cases: in vivo
Setaria viridis = assay: Greenhouse pre-emergence (PRE) herbicidal test on SETVI; settings: Setaria viridis, pre-emergence
Outline: (§1)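 Damage was rated visually on a 0 to 100 scale at 20 days after treatment, where 0 meant normal growth and 100 meant no emergence or complete kill of above-ground parts. Compounds were applied in water to freshly sown loamy-sand pots.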

Abutilon theophrasti = assay: Greenhouse post-emergence (POST) herbicidal test on ABUTH; settings: Abutilon theophrasti, post-emergence; for inhibition at 8 g/ha: use rate 8 gai/ha
Outline: (§2)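 Greenhouse weeds, raised in pots of humus-containing loamy sand, receive a water-based spray of the actives once 3 to 15 cm tall. Damage is rated visually from 0 (none) to 100 (above-ground parts destroyed) 20 days after treatment.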

Geranium pusillum = assay: Greenhouse post-emergence (POST) herbicidal test on GERPU; settings: for inhibition at 2 g/ha: use rate 2 gai/ha; for inhibition at 4 g/ha: use rate 4 gai/ha
Outline: as §2

Amaranthus retroflexus = assay: Greenhouse post-emergence (POST) herbicidal test on AMARE; settings: Amaranthus retroflexus, post-emergence; for inhibition at 8 g/ha: use rate 8 gai/ha
Outline: as §2

Euphorbia heterophylla = assay: Greenhouse post-emergence (POST) herbicidal test on EPHHL; settings: Euphorbia heterophylla, post-emergence; for inhibition at 2 g/ha: use rate 2 gai/ha; for inhibition at 8 g/ha: use rate 8 gai/ha; for inhibition at 4 g/ha: use rate 4 gai/ha
Outline: as §2

Ipomoea hederacea [1] = assay: Greenhouse post-emergence (POST) herbicidal test on IPOHE; settings: Ipomoea hederacea, post-emergence
Outline: as §2

Ipomoea hederacea [2] = assay: Greenhouse pre-emergence (PRE) herbicidal test on IPOHE; settings: Ipomoea hederacea, pre-emergence; for inhibition at 8 g/ha: use rate 8 gai/ha
Outline: as §1

Avena fatua = assay: Greenhouse pre-emergence (PRE) herbicidal test on AVEFA; settings: use rate 2 gai/ha
Excerpt: The culture containers used were plastic pots containing loamy sand with approximately 3.0% of humus as substrate. The seeds of the test plants were sown separately for each species.
For the pre-emergence treatment, the active compounds, suspended or emulsified in water, were applied directly after sowing by means of finely distributing nozzles. The containers were irrigated gently to promote germination and growth and subsequently covered with transparent plastic hoods until the plants had rooted. This cover caused uniform germination of the test plants unless this was adversely affected by the active compounds.
Depending on the species, the plants were kept at 10-25° C. and 20-35° C., respectively.
The test period extended over 2 to 4 weeks. During this time, the plants were tended and their response to the individual treatments was evaluated.
Evaluation was carried out using a scale from 0 to 100. 100 means no emergence of the plants, or complete destruction of at least the above-ground parts, and 0 means no damage or normal course of growth. A good herbicidal activity is given at values of at least 70, and very good herbicidal activity is given at values of at least 85.
If not stated differently, the respective components A and B, and if appropriate, C were formulated as a 5% by weight strength emulsion concentrate and, with addition of the amount of solvent system, introduced into the spray liquor used for applying the active compound.
As indicated application was either post emergent (POST) at the respective growth stage (GS) of the weed (BBCH code), or pre-emergent (PRE).
Assessment was 20 days after treatment (DAT).

AMAPA = assay: Greenhouse pre-emergence (PRE) herbicidal test on AMAPA; settings: pre-emergence
[3] = 480 h, PRE, SETVI, use rate 2 gai/ha, 20 DAT, read-out: solo application % activity
[4] = 480 h, POST, ABUTH, use rate 2 gai/ha, 20 DAT, read-out: solo application % activity
[5] = 480 h, POST, EPHHL, 20 DAT, read-out: solo application % activity
[6] = IPOHE POST, use rate 2 gai/ha, read-out: % activity

Work on COc1c(Cl)c(F)c(F)c(F)c1Nc1nc(N)nc(C(C)(C)F)n1 [Compound I-4, N4-(5-Chloro-2,3,4-trifluoro-6-methoxy-phenyl)-6-(1-fluoro-1-methyl-ethyl)-1,3,5-triazine-2,4-diamine] yielded a pest or weed control at 8 g/ha (Setaria viridis; 480 h, PRE, SETVI, I-4 solo 8 gai/ha, 20 DAT) of 80%, an inhibition at 2 g/ha (Setaria viridis; [3]) of 5% and an inhibition at 8 g/ha (Setaria viridis; 480 h, PRE, SETVI, use rate 8 gai/ha, 20 DAT, read-out: solo application % activity) of 75%. For the same molecule, the inhibition at 2 g/ha (Setaria viridis; SETVI PRE, use rate 2 gai/ha, read-out: % activity) was 50%, the pest or weed control at 2 g/ha (Abutilon theophrasti; 480 h, POST, ABUTH, I-4 solo 2 gai/ha, 20 DAT) was 20% and the inhibition at 2 g/ha (Abutilon theophrasti; [4]) was 10%. For the same molecule, the inhibition at 8 g/ha (Abutilon theophrasti; 480 h, POST, ABUTH, 20 DAT, read-out: solo application % activity) was 10%, the pest or weed control at 2 g/ha (Geranium pusillum; Geranium pusillum, post-emergence, 480 h, POST, GERPU, I-4 solo 2 gai/ha, 20 DAT) was 10% and the pest or weed control at 8 g/ha (Geranium pusillum; Geranium pusillum, post-emergence, 480 h, POST, GERPU, I-4 solo 8 gai/ha, 20 DAT) was 30%. For the same molecule, the inhibition at 2 g/ha (Geranium pusillum; Geranium pusillum, post-emergence, 480 h, POST, GERPU, 20 DAT, read-out: solo application % activity) was 5%, the inhibition at 8 g/ha (Geranium pusillum; Geranium pusillum, post-emergence, 480 h, POST, GERPU, use rate 8 gai/ha, 20 DAT, read-out: solo application % activity) was 25% and the inhibition at 2 g/ha (Amaranthus retroflexus; 480 h, POST, AMARE, use rate 2 gai/ha, 20 DAT, read-out: solo application % activity) was 80%. For the same molecule, the inhibition at 8 g/ha (Amaranthus retroflexus; 480 h, POST, AMARE, 20 DAT, read-out: solo application % activity) was 75%, the inhibition at 2 g/ha (Euphorbia heterophylla; [5]) was 30% and the inhibition at 8 g/ha (Euphorbia heterophylla; [5]) was 35%. For the same molecule, the inhibition at 8 g/ha (Ipomoea hederacea [1]; 480 h, POST, IPOHE, use rate 8 gai/ha, 20 DAT, read-out: solo application % activity) was 80% and the inhibition at 2 g/ha (Ipomoea hederacea [1]; [6]) was 40%.
COc1c(Cl)cc(F)c(F)c1Nc1nc(N)nc(C(C)(C)F)n1 [Compound I-3] showed a pest or weed control at 2 g/ha (Setaria viridis; 480 h, PRE, 2 gai/ha, 20 DAT) of 60%, an inhibition at 2 g/ha (Setaria viridis; 480 h, PRE, SETVI, 2 gai/ha, 20 DAT, read-out: % activity solo application) of 50% and an inhibition at 2 g/ha (Setaria viridis; [3]) of 20%. For the same molecule, the inhibition at 2 g/ha (Setaria viridis; 480 h, SETVI PRE, 20 DAT, use rate 2 gai/ha, read-out: % activity) was 60%, the pest or weed control at 2 g/ha (Abutilon theophrasti; 432 h, POST, ABUTH, I-3 solo 2 gai/ha, 18 DAT) was 35% and the pest or weed control at 8 g/ha (Abutilon theophrasti; 432 h, POST, ABUTH, I-3 solo 8 gai/ha, 18 DAT) was 65%. For the same molecule, the pest or weed control at 8 g/ha (Abutilon theophrasti; 480 h, POST, 8 gai/ha, 20 DAT) was 50%, the inhibition at 2 g/ha (Abutilon theophrasti; 480 h, POST, ABUTH, 2 gai/ha, 20 DAT, read-out: % activity solo application) was 10% and the pest or weed control at 2 g/ha (Abutilon theophrasti; 480 h, POST, ABUTH, I-3 solo 2 gai/ha, 20 DAT) was 50%. It also gave a pest or weed control at 8 g/ha (Abutilon theophrasti; 480 h, POST, ABUTH, I-3 solo 8 gai/ha, 20 DAT) of 80%, an inhibition at 2 g/ha (Abutilon theophrasti; [4]) of 10% and an inhibition at 4 g/ha (Abutilon theophrasti; 480 h, POST, ABUTH, use rate 4 gai/ha, 20 DAT) of 10%. For the same molecule, the inhibition at 16 g/ha (Abutilon theophrasti; 480 h, POST, ABUTH, use rate 16 gai/ha, 20 DAT) was 50%, the inhibition at 2 g/ha (Abutilon theophrasti; ABUTH POST, use rate 2 gai/ha, read-out: % activity) was 20% and the inhibition at 8 g/ha (Abutilon theophrasti; ABUTH POST, read-out: % activity) was 85%. The inhibition at 2 g/ha (Abutilon theophrasti; POST, ABUTH, use rate 2 gai/ha, read-out: % activity) was 30%, the “% activity” value (Geranium pusillum; GERPU POST, use rate 8 gai/ha) was 50% and the pest or weed control at 2 g/ha (Geranium pusillum; Geranium pusillum, post-emergence, 432 h, POST, GERPU, I-3 solo 2 gai/ha, 18 DAT) was 25%. The inhibition at 2 g/ha (Geranium pusillum; Geranium pusillum, post-emergence, 480 h, GERPU POST, 20 DAT, read-out: % activity) was 25%, the pest or weed control at 2 g/ha (Geranium pusillum; Geranium pusillum, post-emergence, 480 h, POST, 2 gai/ha, 20 DAT) was 10% and the pest or weed control at 8 g/ha (Geranium pusillum; Geranium pusillum, post-emergence, 480 h, POST, 8 gai/ha, 20 DAT) was 75%. For the same molecule, the pest or weed control at 2 g/ha (Geranium pusillum; Geranium pusillum, post-emergence, 480 h, POST, GERPU, I-3 solo 2 gai/ha, 20 DAT) was 20%, the pest or weed control at 8 g/ha (Geranium pusillum; Geranium pusillum, post-emergence, 480 h, POST, GERPU, I-3 solo 8 gai/ha, 20 DAT) was 10% and the inhibition at 4 g/ha (Geranium pusillum; Geranium pusillum, post-emergence, 480 h, POST, GERPU, 20 DAT) was 0%. The inhibition at 16 g/ha (Geranium pusillum; Geranium pusillum, post-emergence, 480 h, POST, GERPU, use rate 16 gai/ha, 20 DAT) was 10%, the inhibition at 2 g/ha (Geranium pusillum; Geranium pusillum, post-emergence, GERPU POST, read-out: % activity) was 30% and the inhibition at 8 g/ha (Geranium pusillum; Geranium pusillum, post-emergence, GERPU POST, use rate 8 gai/ha, read-out: % activity) was 70%. For the same molecule, the inhibition at 2 g/ha (Geranium pusillum; Geranium pusillum, post-emergence, POST, GERPU, read-out: % activity) was 20%, the inhibition at 4 g/ha (Geranium pusillum; Geranium pusillum, post-emergence, POST, GERPU) was 40% and the pest or weed control at 8 g/ha (Amaranthus retroflexus; 432 h, POST, AMARE, I-3 solo 8 gai/ha, 18 DAT) was 90%. The inhibition at 2 g/ha (Amaranthus retroflexus; 480 h, POST, AMARE, 2 gai/ha, 20 DAT, read-out: % activity solo application) was 45%, the inhibition at 4 g/ha (Amaranthus retroflexus; 480 h, POST, AMARE, use rate 4 gai/ha, 20 DAT) was 50% and the inhibition at 2 g/ha (Amaranthus retroflexus; AMARE POST, use rate 2 gai/ha, read-out: % activity) was 60%. It also gave an inhibition at 8 g/ha (Amaranthus retroflexus; AMARE POST, read-out: % activity) of 75%, an inhibition at 2 g/ha (Amaranthus retroflexus; POST, AMARE, use rate 2 gai/ha, read-out: % activity) of 70% and an inhibition at 2 g/ha (Euphorbia heterophylla; 480 h, EPHHL POST, 20 DAT, read-out: % activity) of 25%. It also gave a pest or weed control at 8 g/ha (Euphorbia heterophylla; 480 h, POST, 8 gai/ha, 20 DAT) of 60%, an inhibition at 2 g/ha (Euphorbia heterophylla; [5]) of 20% and an inhibition at 4 g/ha (Euphorbia heterophylla; 480 h, POST, EPHHL, 20 DAT) of 65%. It also gave an inhibition at 8 g/ha (Euphorbia heterophylla; [5]) of 50%, an inhibition at 8 g/ha (Euphorbia heterophylla; EPHHL POST, read-out: % activity) of 60% and an inhibition at 4 g/ha (Euphorbia heterophylla; POST, EPHHL) of 60%. It also gave a pest or weed control at 8 g/ha (Ipomoea hederacea [1]; 480 h, POST, 8 gai/ha, 20 DAT) of 90%, an inhibition at 2 g/ha (Ipomoea hederacea [1]; 480 h, POST, IPOHE, 2 gai/ha, 20 DAT, read-out: % activity solo application) of 80% and an inhibition at 8 g/ha (Ipomoea hederacea [1]; 480 h, POST, IPOHE, 8 gai/ha, 20 DAT, read-out: % activity solo application) of 70%. It also gave an inhibition at 2 g/ha (Ipomoea hederacea [1]; [6]) of 65%, an inhibition at 4 g/ha (Ipomoea hederacea [2]; 480 h, PRE, IPOHE, use rate 4 gai/ha, 20 DAT) of 5% and an inhibition at 8 g/ha (Ipomoea hederacea [2]; 480 h, PRE, IPOHE, 20 DAT) of 30%. It also gave an inhibition at 16 g/ha (Ipomoea hederacea [2]; 480 h, PRE, IPOHE, use rate 16 gai/ha, 20 DAT) of 40%, an inhibition at 32 g/ha (Ipomoea hederacea [2]; 480 h, PRE, IPOHE, use rate 32 gai/ha, 20 DAT) of 40% and an inhibition at 8 g/ha (Ipomoea hederacea [2]; IPOHE PRE) of 35%. The inhibition at 2 g/ha (Avena fatua) was 20%, the inhibition at 1 g/ha (AMAPA; 240 h, use rate 1 gai/ha, 10 DAT) was 40% and the inhibition at 2 g/ha (AMAPA; 240 h, use rate 2 gai/ha, 10 DAT) was 60%. It also gave an inhibition at 8 g/ha (AMAPA; 480 h, use rate 8 gai/ha, 20 DAT) of 60%.
